Assay results: patent US20230286970A1, “NOVEL OXADIAZOLE-BASED SELECTIVE HDAC6 INHIBITORS” (ITALFARMACO S.P.A., priority 2020, published 2023)

Tests used:
recombinant human HDAC6 = recombinant human HDAC6 (Homo sapiens (Human), UniProt Q9UBN7); assay: Enzymatic screening, HDAC6 inhibition (fluorogenic FdL_G substrate); format: biochemical
Procedure, shortened: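 Enzyme was preincubated with compound (8 doses, triplicate, 1% DMSO) in 25 mM Tris-HCl pH 8, 130 mM NaCl, 0.05% Tween-20, 10% glycerol, with BSA. A FLUOR DE LYS-Green substrate was then added, and fluorescence was read after developer plus 2 μM TSA.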

recombinant human HDAC1 = recombinant human HDAC1 (Homo sapiens (Human), UniProt Q13547); assay: Enzymatic screening, HDAC1 inhibition (fluorogenic FdL_G substrate); format: biochemical
Procedure, shortened: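 Recombinant human HDAC1 inhibition was measured fluorometrically using the FLUOR DE LYS-Green (FdL_G) substrate. Compounds at 8 doses (1% DMSO final) in Tris-HCl pH 8 buffer with NaCl, Tween-20 and glycerol were preincubated in triplicate with enzyme and 1 mg/mL BSA, then given substrate. Developer I plus 2 μM TSA was added, and fluorescence read after 25 minutes in the dark.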

Chain of recombinant human HDAC6 (Q9UBN7 whole entry): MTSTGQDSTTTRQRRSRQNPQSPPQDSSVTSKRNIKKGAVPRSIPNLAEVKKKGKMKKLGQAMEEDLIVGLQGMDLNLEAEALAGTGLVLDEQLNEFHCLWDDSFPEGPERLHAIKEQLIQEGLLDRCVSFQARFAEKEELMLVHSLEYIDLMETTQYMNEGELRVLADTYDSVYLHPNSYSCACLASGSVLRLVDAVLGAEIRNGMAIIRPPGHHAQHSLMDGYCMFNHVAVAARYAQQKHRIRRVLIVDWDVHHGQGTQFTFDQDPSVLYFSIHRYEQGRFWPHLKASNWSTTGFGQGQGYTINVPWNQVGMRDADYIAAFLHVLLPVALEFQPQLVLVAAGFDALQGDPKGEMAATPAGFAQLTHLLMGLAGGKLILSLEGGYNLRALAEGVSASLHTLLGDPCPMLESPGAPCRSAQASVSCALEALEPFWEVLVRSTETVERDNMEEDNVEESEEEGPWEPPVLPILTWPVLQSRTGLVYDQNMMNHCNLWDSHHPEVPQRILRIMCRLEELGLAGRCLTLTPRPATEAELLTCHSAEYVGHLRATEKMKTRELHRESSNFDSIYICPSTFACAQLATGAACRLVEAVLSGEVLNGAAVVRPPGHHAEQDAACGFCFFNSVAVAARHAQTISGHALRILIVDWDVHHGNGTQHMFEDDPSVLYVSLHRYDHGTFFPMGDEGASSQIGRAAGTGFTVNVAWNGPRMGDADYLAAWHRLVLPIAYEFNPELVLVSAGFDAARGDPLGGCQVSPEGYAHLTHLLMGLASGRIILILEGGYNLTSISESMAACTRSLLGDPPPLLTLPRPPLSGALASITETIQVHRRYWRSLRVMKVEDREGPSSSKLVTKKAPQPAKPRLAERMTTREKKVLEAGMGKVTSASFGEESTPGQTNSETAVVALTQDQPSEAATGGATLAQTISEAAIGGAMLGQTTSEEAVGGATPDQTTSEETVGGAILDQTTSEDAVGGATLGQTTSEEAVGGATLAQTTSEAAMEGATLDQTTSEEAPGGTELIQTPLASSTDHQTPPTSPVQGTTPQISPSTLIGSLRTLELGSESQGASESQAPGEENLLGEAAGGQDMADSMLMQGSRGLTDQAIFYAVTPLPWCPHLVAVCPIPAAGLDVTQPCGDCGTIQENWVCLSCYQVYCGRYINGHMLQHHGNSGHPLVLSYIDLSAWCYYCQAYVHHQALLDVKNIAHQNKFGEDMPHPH
Chain of recombinant human HDAC1 (Q13547 whole entry): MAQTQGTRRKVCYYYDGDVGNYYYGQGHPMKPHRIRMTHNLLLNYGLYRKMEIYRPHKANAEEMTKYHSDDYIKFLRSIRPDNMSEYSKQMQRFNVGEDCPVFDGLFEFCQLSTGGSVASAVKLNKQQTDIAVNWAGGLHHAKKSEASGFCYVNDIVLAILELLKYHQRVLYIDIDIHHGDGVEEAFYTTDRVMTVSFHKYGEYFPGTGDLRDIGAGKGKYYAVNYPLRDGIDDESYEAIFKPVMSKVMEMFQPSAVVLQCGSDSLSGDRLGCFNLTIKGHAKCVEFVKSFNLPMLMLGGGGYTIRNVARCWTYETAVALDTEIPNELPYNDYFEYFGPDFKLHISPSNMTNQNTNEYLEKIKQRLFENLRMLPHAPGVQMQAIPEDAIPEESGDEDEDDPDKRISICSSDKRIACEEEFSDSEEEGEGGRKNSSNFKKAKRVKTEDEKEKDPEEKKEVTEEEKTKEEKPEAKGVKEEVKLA

Structure (SMILES) | IC50 (recombinant human HDAC6) | IC50 (recombinant human HDAC1)
CN(Cc1ccncc1)Cc1ccc(-c2cn(Cc3ccc(-c4nnc(C(F)F)o4)cc3)nn2)cc1 [compound 282, N-(4-(1-(4-(5-(difluoromethyl)-1,3,4-oxadiazol-2-yl)benzyl)-1H-1,2,3-triazol-4-yl)benzyl)-N-methyl-1-(pyridin-4-yl)methanamine] | 282 nM | > 200000 nM
Cn1c(Sc2c(F)cc(-c3nnc(C(F)F)o3)cc2F)nnc1-c1ccc(N)nc1 [compound 284, 5-(5-((4-(5-(difluoromethyl)-1,3,4-oxadiazol-2-yl)-2,6-difluorophenyl)thio)-4-methyl-4H-1,2,4-triazol-3-yl)pyridin-2-amine] | 323 nM | > 200000 nM
Cn1c(Sc2ccc(-c3nnc(C(F)F)o3)cc2)nnc1-c1ccc(N)nc1 [compound 285, 5-(5-((4-(5-(difluoromethyl)-1,3,4-oxadiazol-2-yl)phenyl)thio)-4-methyl-4H-1,2,4-triazol-3-yl)pyridin-2-amine] | 491 nM | > 200000 nM
FC(F)c1nnc(-c2ccc(Cn3nnnc3-c3ncccn3)cc2)o1 [compound 287, 2-(difluoromethyl)-5-(4-((5-(pyrimidin-2-yl)-1H-tetrazol-1-yl)methyl)phenyl)-1,3,4-oxadiazole] | 446 nM | > 200000 nM
FC(F)c1nnc(-c2ccc(Cn3nnnc3-c3cccc(-n4cccn4)c3)cc2)o1 [compound 289, 2-(4-((5-(3-(1H-pyrazol-1-yl)phenyl)-1H-tetrazol-1-yl)methyl)phenyl)-5-(difluoromethyl)-1,3,4-oxadiazole] | 203 nM | > 200000 nM
Nc1ccc(-c2nnnn2Cc2ncc(-c3nnc(C(F)F)o3)cn2)cn1 [compound 290, 5-(1-((5-(5-(difluoromethyl)-1,3,4-oxadiazol-2-yl)pyrimidin-2-yl)methyl)-1H-tetrazol-5-yl)pyridin-2-amine] | 68 nM | > 200000 nM
Cn1c(N)nc2cc(-c3nnnn3Cc3ncc(-c4nnc(C(F)F)o4)cn3)ccc21 [compound 291, 5-(1-((5-(5-(difluoromethyl)-1,3,4-oxadiazol-2-yl)pyrimidin-2-yl)methyl)-1H-tetrazol-5-yl)-1-methyl-1H-benzo[d]imidazol-2-amine] | 129 nM | > 200000 nM
O=C1NCc2ccc(-c3cn(Cc4ccc(-c5nnc(C(F)F)o5)cc4)cn3)cc21 [compound 294, 6-(1-(4-(5-(difluoromethyl)-1,3,4-oxadiazol-2-yl)benzyl)-1H-imidazol-4-yl)isoindolin-1-one] | 78 nM | > 200000 nM
Nc1ccc(-c2cn(Cc3c(F)cc(-c4nnc(C(F)F)o4)cc3F)nn2)cc1 [compound 296, 4-(1-(4-(5-(difluoromethyl)-1,3,4-oxadiazol-2-yl)-2,6-difluorobenzyl)-1H-1,2,3-triazol-4-yl)aniline] | 34 nM | > 200000 nM
Nc1cccc(-c2cn(Cc3c(F)cc(-c4nnc(C(F)F)o4)cc3F)nn2)c1 [compound 297, 3-(1-(4-(5-(difluoromethyl)-1,3,4-oxadiazol-2-yl)-2,6-difluorobenzyl)-1H-1,2,3-triazol-4-yl)aniline] | 37 nM | 65000 nM
O=C1NCc2ccc(-c3nnnn3Cc3ncc(-c4nnc(C(F)F)o4)cn3)cc21 [compound 298, 6-(1-((5-(5-(difluoromethyl)-1,3,4-oxadiazol-2-yl)pyrimidin-2-yl)methyl)-1H-tetrazol-5-yl)isoindolin-1-one] | 151 nM | > 200000 nM
FC(F)c1nnc(-c2cnc(Cn3nnnc3-c3cccs3)nc2)o1 [compound 299, 2-(difluoromethyl)-5-(2-((5-(thiophen-2-yl)-1H-tetrazol-1-yl)methyl)pyrimidin-5-yl)-1,3,4-oxadiazole] | 110 nM | > 200000 nM
Nc1nc2cc(-c3cn(Cc4ccc(-c5nnc(C(F)F)o5)cc4)cn3)ccc2s1 [compound 300, 5-(1-(4-(5-(difluoromethyl)-1,3,4-oxadiazol-2-yl)benzyl)-1H-imidazol-4-yl)benzo[d]thiazol-2-amine] | 67 nM | > 200000 nM
CS(=O)(=O)NCC(c1ccc(-c2nnc(C(F)F)o2)cc1)n1cc(-c2ccc(N)nc2)nn1 (stereo not shown) [compound 302, N-[2-[4-(6-aminopyridin-3-yl)triazol-1-yl]-2-[4-[5-(difluoromethyl)-1,3,4-oxadiazol-2-yl]phenyl]ethyl]methanesulfonamide] | 49 nM | > 1e+06 nM
Nc1ccc(-c2cn(C(CCCN3CCCCC3)c3ccc(-c4nnc(C(F)F)o4)cc3)nn2)cn1 (stereo not shown) [compound 303, 5-[1-[1-[4-[5-(difluoromethyl)-1,3,4-oxadiazol-2-yl]phenyl]-4-piperidin-1-ylbutyl]triazol-4-yl]pyridin-2-amine] | 62 nM | > 1e+06 nM
Nc1ccc(-c2cn(Cc3ncc(-c4nnc(C(F)F)o4)cc3F)nn2)cn1 [compound 304, 5-[1-[[5-[5-(difluoromethyl)-1,3,4-oxadiazol-2-yl]-3-fluoropyridin-2-yl]methyl]triazol-4-yl]pyridin-2-amine] | 35 nM | > 1e+06 nM
Nc1nc2ccc(-c3cn(Cc4ccc(-c5nnc(C(F)F)o5)cc4)cn3)cc2s1 [compound 306, 6-[1-[[4-[5-(difluoromethyl)-1,3,4-oxadiazol-2-yl]phenyl]methyl]imidazol-4-yl]-1,3-benzothiazol-2-amine] | 32 nM | > 1e+06 nM
Nc1nc2ccc(-c3cn(Cc4ccc(-c5nnc(C(F)F)o5)cn4)cn3)cc2s1 [compound 307, 6-[1-[[5-[5-(difluoromethyl)-1,3,4-oxadiazol-2-yl]pyridin-2-yl]methyl]imidazol-4-yl]-1,3-benzothiazol-2-amine] | 11 nM | > 1e+06 nM
Nc1nc2cc(-c3cn(Cc4ccc(-c5nnc(C(F)F)o5)cn4)cn3)ccc2o1 [compound 308, 5-(1-((5-(5-(difluoromethyl)-1,3,4-oxadiazol-2-yl)pyridin-2-yl)methyl)-1H-imidazol-4-yl)benzo[d]oxazol-2-amine] | 15 nM | > 1e+06 nM
CS(=O)(=O)NCC[C@@H](c1ccc(-c2nnc(C(F)F)o2)cc1)n1cc(-c2ccc(N)nc2)nn1 [compound 310, N-[(3S)-3-[4-(6-aminopyridin-3-yl)triazol-1-yl]-3-[4-[5-(difluoromethyl)-1,3,4-oxadiazol-2-yl]phenyl]propyl]methanesulfonamide] | 138 nM | > 1e+06 nM
CS(=O)(=O)NCC[C@H](c1ccc(-c2nnc(C(F)F)o2)cc1)n1cc(-c2ccc(N)nc2)nn1 [compound 311, N-[(3R)-3-[4-(6-aminopyridin-3-yl)triazol-1-yl]-3-[4-[5-(difluoromethyl)-1,3,4-oxadiazol-2-yl]phenyl]propyl]methanesulfonamide] | 25 nM | > 1e+06 nM
Nc1ccc(-c2cn([C@@H](CN3CCCC3)c3ccc(-c4nnc(C(F)F)o4)cc3)nn2)cn1 [compound 312, 5-[1-[(1R)-1-[4-[5-(difluoromethyl)-1,3,4-oxadiazol-2-yl]phenyl]-2-pyrrolidin-1-ylethyl]triazol-4-yl]pyridin-2-amine] | 41 nM | > 1e+06 nM
Nc1ccc(-c2cn([C@H](CN3CCCC3)c3ccc(-c4nnc(C(F)F)o4)cc3)nn2)cn1 [compound 313, 5-[1-[(1S)-1-[4-[5-(difluoromethyl)-1,3,4-oxadiazol-2-yl]phenyl]-2-pyrrolidin-1-ylethyl]triazol-4-yl]pyridin-2-amine] | 308 nM | > 1e+06 nM
